Series [1] deals with TNFα-Mediated Nitrite Production in EOC-20 Cells. As to the kind of experiment: Leukotrienes added to EOC-20 cells with or without low-dose TNFα, nitrite at 24 h. The format is cell-based, mouse. To be noted: for autonomous stimulation of NO2− production: without TNFα. As to the method: Because 5LOX inhibitors tended to antagonize TNFα, the converse experiment was performed of directly adding 5LOX metabolites to EOC-20 cells in the presence or absence of TNFα. LTB4 was added to microglia at 10 μM and TNFα was added at a low dose (4 ng/mL) 10 min later. Nitrite was assayed at 24 h. […] Similar examples exist in the literature of LTB4 synergizing with IFNγ to activate macrophages (Talvani et al., 2002).

For series [2], the system named is LnCAP Production of PSA. The series can be described thus: LnCAP production of PSA (ELISA). The format is cell-based. To be noted: 24 h. As to the method:
LnCAP prostate cancer cells were be cultured according to established methods (Horoszewicz et al., 1983). These cells product prostate-specific antigen (PSA), a serine protease that predicts metastatic potential ([…] et al., 2000). […] Each drug was tested in triplicate at each concentration. Medium was removed and tested for PSA concentration using a commercially available enzyme-linked immunosorbent assay (ELISA). Viability was determined in the adherent cells using the MTT assay.

Series [3] deals with EOC-20 cells. As to the method: (§1) Lower IC50 values indicate improved efficacy. FIG. 2 illustrates the principle of the measurement using NDGA as an example test agent. In order to determine viability, cell culture medium was replaced with phenol-free DMEM (Gibco) containing 20 μL/mL of MTT viability reagent (Promega). […] Control cells were taken to indicate 100% viability and intermediate values of MTT reduction were scaled to percentage of control. For each compound, an LD50 value was determined by extrapolation through sublethal concentrations. This value represents the concentration that reduced the MTT viability parameter by 50%.

The subject of series [4] is TNFα-Stimulated NO2^− Production in EOC-20 Cells. As to the kind of experiment: TNFα-stimulated nitrite (NO2−) production in EOC-20 microglial cells, Griess assay. The format is cell-based, mouse. To be noted: for IC50: read-out: IC50. As to the method: Cells were cultured in 24 well plates until confluent then treated with test agent, which was dissolved at 100× final concentration in dimethylsulfoxide (DMSO), or with vehicle only. Thirty minutes after treatment with test agent, cells were treated with 10 ng/mL recombinant mouse TNFα (Pharmingen, San Diego, Calif. USA). […] Each compound was tested at 100 μM, 20 μM, 4 μM, 0.8 μM and 0 μM in the presence of TNFα. Four wells of cells were used for each concentration of test agent.
as §1
A general note: The Griess reaction detects nitrite, a stable product of nitric oxide.

Series [5] concerns C57/B6 mice. The series can be described thus: 3-nitropropionic acid (3NP) striatal damage model, rotarod and balance beam. In kind it is in vivo. The following applies: 2500 ppm in diet for one month, then 3NP 50 mg/kg i.p. every 12 h for 5 days. As to the method:
Mice were then injected with 50 mg/kg 3NP intraperitoneally, every 12 h for 5 days. Motor performance was assessed daily by a rotarod task and balance was assessed by a balance wire task. In the rotarod task (Hensley et al. 2002), animals were placed on a bar rotating at 1 rpm and accelerating 10 rpm/minute until the animal fell from the bar. In the balance beam test, mice were placed on a 2-cm balance beam by suspending them by the tail, orienting them perpendicular to the beam, and placing the forepaws followed by hindpaws on the balance beam. Mice were left on the beam until they fell onto a soft cushion 75 cm below or until 5 min elapsed. The longest time of each pair of trials was used for statistical analysis.
(The rotarod test checks motor coordination on a turning rod.)

Series [6] has as its system C6 astrocyte culture exposed to lipopolysaccharide plus interferon gamma. To be noted: LPS-stimulated C6 astrocyte model, Soliman et al., 1998; cited from earlier work.
In series [7] the test system is lipoxygenase. To be noted: cited from earlier work.
Series [8] concerns pro-inflammatory cytokines in EOC-20 microglial cells. As to the kind of experiment: Multiprobe ribonuclease protection assay of cytokine transcription in TNFα-stimulated EOC-20 cells. The format is cell-based, mouse. The source says: It was noted that IL1β, IL1RA, IFNγ and MIF were affected by the treatments, while IL18 was not.
In series [9] the test system is G93A-SOD1 mice. To be noted: administered chronically; Gurney et al., 1996; cited from earlier work.
In series [10] the target is T1, human wild-type SOD1 (Homo sapiens, UniProt P00441).
T1 construct: purified to homogeneity from human erythrocytes; from tissue; host or cells: human erythrocytes
T1 sequence (P00441 2-154 limits assumed): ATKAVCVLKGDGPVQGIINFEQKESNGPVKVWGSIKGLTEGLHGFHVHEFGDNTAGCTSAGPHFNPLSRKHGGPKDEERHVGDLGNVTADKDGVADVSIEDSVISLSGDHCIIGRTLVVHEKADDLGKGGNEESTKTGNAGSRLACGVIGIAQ
The series can be described thus: BIAcore binding of 5LOX to immobilized SOD1. To be noted: preliminary Scatchard analysis, upper bound. The source says:
Using several techniques that allow the study of protein-protein binding interactions in vitro, the interaction of SOD1 with 5LOX may be investigated. One approach involves the use of BIAcore instrumentation (Amersham-Pharmacia, Upsala, Sweden). The BIA (biomolecular interaction analysis) system consists of a solid-phase support upon which a protein (the ligand) can be covalently immobilized. This surface is placed in contact with a microfluidic cartridge, which dispenses a second protein (the analyte) across the binding surface. Adherence of the analyte to the immobilized ligand is measured by surface plasmon resonance (SPR) spectrometry. The surface plasmon resonance detector responds to refractive index changes in the vicinity of the sensor surface as the immobilized species interacts with its binding partner in the fluid phase. Data output from the BIAcore instrument takes the form of “sensorgrams” (FIG. 14A). Sensorgrams can be interpreted qualitatively, to assess whether a nonspecific binding event occurs, or quantitatively, in order to measure binding affinity.
In a previous experiment, human wild-type SOD1 (purified to homogeneity from human erythrocytes) was covalently immobilized to the BIAcore chip via surface lysine residues, using standard carbodiimide coupling chemistry. […] Experiments to quantitate the binding affinity are conducted. […]
(In general: Surface plasmon resonance follows binding to a sensor surface in real time, without labels.)

Where [11] appears, read: Mus musculus, 24 h, Table III, 10 ng/mL TNFα, 24 hr, by interpolation.
The mark [12] stands for this setting: Table III, 10 ng/mL TNFα, 24 hr, by interpolation.
Where [13] appears, read: Homo sapiens, LNCaP, extrapolated.
The mark [14] stands for this setting: Table III, MTT viability, by extrapolation through sublethal concentrations.

Like-named read-outs stand apart in the source and are kept apart here. Marks after values point to notes of the source that are not given here.

For the molecule `CCCCC/C=C\C[C@@H](O)/C=C/C=C/C=C\[C@@H](O)CCCC(=O)O` [LTB4, Leukotriene B4], in series [1] (10 μM, TNFα 4 ng/mL, 24 h), the “effect on nitrite yield with low-dose TNFα” value is given as “synergized with low-dose TNFα to produce a significantly greater nitrite yield”. Moreover, the “autonomous stimulation of NO2− production” value in series [1] is “Neither LTA4 nor LTB4 stimulated NO2^− production autonomously”.

As to `O=c1c(O)c(-c2ccc(O)cc2)oc2cc(O)cc(O)c12` [Kaempherol, 3,4′,5,7-tetrahydroxy-flavone], the IC50 in series [2] (Homo sapiens, LNCaP) stood at 68 µM; in series [4] (setting [11]), 47 µM. The molecule also came in with an LD50 in series [3] (mouse) of 70 μm.

Turning to `Oc1cc(O)c2c(c1)O[C@H](c1ccc(O)c(O)c1)[C@H](O)C2` [Epicatechin], the “IC50 Values (ELISA), PSA production” value in [2] is “Inactive”.

As to `Oc1ccc(/C=C/c2cc(O)cc(O)c2)cc1` [Resveratrol, 3,4′,5-trihydroxy stilbene], the IC50 in [2] (Homo sapiens, LNCaP) was found to be 43 µM; in [4] (setting [11]), 80 µM. In addition, the LD50 result in series [3] is listed as “nontoxic”.

For `CCCCC/C=C\C\C=C/C=C/C=C/[C@@H]1O[C@H]1CCCC(=O)O` [LTA4], the “autonomous stimulation of NO2− production” value in [1] is “Neither LTA4 nor LTB4 stimulated NO2^− production autonomously”.

Turning to “7-Bis (4-hydroxy-3-methoxyphenyl)-1,6-heptadiene-3,5-dione [Curcumin]”, the “balance test” value in [5] is reported as “no effect”. Further, the “rotarod test” value in series [5] was “possibly a detrimental effect”. The IC50 in series [4] (setting [12]) is 7 µM; in series [4] (Table V) it was 14 µM; in series [6], 72 µM.

In the case of `O=c1c(O)c(-c2ccc(O)c(O)c2)oc2cc(O)cc(O)c12` [Quercetin], the IC50 in series [2] (setting [13]) was 131 µM; in [4] (setting [11]) it was 44 µM; in series [6], 0.062 µM. In series [3], the LD50 result is “nontoxic”.

Consider `COc1ccc(C[C@@H](C)[C@@H](C)Cc2ccc(OC)c(OC)c2)cc1OC` [tetra-o-methyl-NDGA], for which the “lipoxygenase inhibition” value in [7] (literature) is on record as “does not inhibit lipoxygenase”. Moreover, in [3], the LD50 is reported as 125* μM. Also, in [4], the “activity against TNFα-stimulated nitrite production” value is reported as “modest bioactivity”. For the same molecule, the IC50 in [4] (Table V) turned out to be 20 µM.

Turning to `O=C(/C=C/c1ccc(O)c(O)c1)OCCc1ccccc1` [caffeic acid phenethyl ester (CAPE), caffeic acid phenethyl ester], in [7] (times more effective than NDGA, Mirzoeva and Calder, 1996), the “lipoxygenase inhibition relative to NDGA” value was roughly 10 times. Moreover, the “activity against TNFα-stimulated nitrite production” value in series [4] is listed as “approximately as effective as curcumin”. For the same molecule, the IC50 turned out to be 12 µM in series [4] (setting [11]) and 12 µM in series [4] (Mus musculus, Table V). Further, the “efficacy relative to NDGA as inhibitor of TNFα-stimulated microglial activation” value in series [4] (fold less effective than NDGA) was found to be 4 fold.

For the molecule `Oc1cc(O)cc(/C=C/c2ccc(O)c(O)c2)c1` [Piceatannol, 3,3′,4′,5 -tetrahydroxy stilbene], the IC50 in series [2] (Homo sapiens, LNCaP) was 42 µM; in series [4] (setting [11]), 15 µM. The LD50 result in [3] (setting [14]) is listed as “nontoxic”. Moreover, in [8], the “transcription of pro-inflammatory cytokines” value was “differentially inhibited transcription of the pro-inflammatory cytokines”.

`O=c1cc(-c2ccccc2)oc2cc(O)cc(O)c12` [Chrysin, 5,7-dihydroxy-flavone]: the IC50 in series [2] (Homo sapiens, LNCaP) came to 91 µM; in series [4] (setting [11]), 63 µM. The LD50 in series [3] (setting [14]) is 85 μm.

On to `O=c1c(-c2ccc(O)cc2)coc2cc(O)ccc12` [Daidzein, 4,7-dihydroxyisoflavone], for which the IC50 in series [2] (setting [13]) is 130 µM; in [4] (setting [11]) it was 114 µM.

Take `O=C(O[C@@H]1Cc2c(O)cc(O)cc2O[C@@H]1c1ccc(O)c(O)c1)c1cc(O)c(O)c(O)c1` [epicatechin gallate]: the half-maximal inhibitory concentration (IC50) in series [6] is 10 µM.

Turning to `O=c1c(O)c(-c2ccc(O)cc2O)oc2cc(O)cc(O)c12` [morin], in series [6], the IC50 was 56 µM.

Take `Nc1nc2ccc(OC(F)(F)F)cc2s1` [Riluzole]: the extension in lifespan in series [9] is 10 days.

With `O=c1cc(-c2ccccc2)oc2cccc(O)c12` [5-OH-flavone], the IC50 in series [2] (extrapolated) is 227 µM; in series [4] (setting [12]) it was 34 µM. The same molecule showed an LD50 in [3] of 310 μm.

B1: 5LOX: Human recombinant 5LOX (Cayman Chemical) (protein, UniProt P09917 1-674, looked up)
Polyunsaturated fatty acid …: MPSYTVTVATGSQWFAGTDDYIYLSLVGSAGCSEKHLLDKPFYNDFERGAVDSYDVTVDEELGEIQLVRIEKRKYWLNDDWYLKYITLKTPHGDYIEFPCYRWITGDVEVVLRDGRAKLARDDQIHILKQHRRKELETRQKQYRWMEWNPGFPLSIDAKCHKDLPRDIQFDSEKGVDFVLNYSKAMENLFINRFMHMFQSSWNDFADFEKIFVKISNTISERVMNHWQEDLMFGYQFLNGCNPVLIRRCTELPEKLPVTTEMVECSLERQLSLEQEVQQGNIFIVDFELLDGIDANKTDPCTLQFLAAPICLLYKNLANKIVPIAIQLNQIPGDENPIFLPSDAKYDWLLAKIWVRSSDFHVHQTITHLLRTHLVSEVFGIAMYRQLPAVHPIFKLLVAHVRFTIAINTKAREQLICECGLFDKANATGGGGHVQMVQRAMKDLTYASLCFPEAIKARGMESKEDIPYYFYRDDGLLVWEAIRTFTAEVVDIYYEGDQVVEEDPELQDFVNDVYVYGMRGRKSSGFPKSVKSREQLSEYLTVVIFTASAQHAAVNFGQYDWCSWIPNAPPTMRAPPPTAKGVVTIEQIVDTLPDRGRSCWHLGAVWALSQFQENELFLGMYPEEHFIEKPVKEAMARFRKNLEAIVSVIAERNKKKQLPYYYLSPDRIPNSVAI
As to B1, the dissociation constant (Kd) in [10] is no more than 20 µM.

By IC50 is commonly meant the concentration that inhibits the measured activity by half. As a reminder, the Kd is the concentration at which binding is half-saturated. A low value points to tighter binding.

(Values after patent publication US20040014721A1, “Method for using tethered bis(polyhydroxyphenyls) and O-alkyl derivatives thereof in treating inflammatory conditions of the central nervous system” (Oklahoma Medical Research Foundation, priority 2002, published 2004).)
